# Legend:
# [1] = target: HDAC 1 (Homo sapiens, UniProt Q13547); details: reported by Ning et al.; cited from earlier work
# [2] = target: T1, HDAC 11 (Homo sapiens, UniProt Q96DB2); details: cited from earlier work
# T1 sequence (Q96DB2 1-347): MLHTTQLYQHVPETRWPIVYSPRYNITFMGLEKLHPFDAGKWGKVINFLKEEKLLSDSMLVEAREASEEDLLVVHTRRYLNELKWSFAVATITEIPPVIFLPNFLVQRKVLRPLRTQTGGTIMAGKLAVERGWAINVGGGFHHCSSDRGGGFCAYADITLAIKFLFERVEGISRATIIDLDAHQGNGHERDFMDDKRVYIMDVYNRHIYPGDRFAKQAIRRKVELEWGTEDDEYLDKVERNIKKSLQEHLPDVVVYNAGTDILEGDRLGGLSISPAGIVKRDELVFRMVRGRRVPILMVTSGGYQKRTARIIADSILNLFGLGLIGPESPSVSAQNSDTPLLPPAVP
# [3] = tested on: MC38 murine colon carcinoma; experiment: Example 3: second-line therapy after PD-L1 inhibitor antibody failure, MC38 syngeneic model in C57BL/6 mice; assay type: in vivo, mouse
# Source text: In this model, a proportion of the animals treated 1st line with the PD-L1 checkpoint inhibitor antibody experience complete tumor regression. However, a similar proportion of animals treated 1st line with the PD-L1 inhibitor antibody experience rapid tumor progression. The balance of the animals treated in this way experience slow tumor progression or stable disease, which is a result which approximates the situation in a number of human cancer patients receiving PD-L1 inhibitor antibody therapy, i.e., they experience a transient partial response, including stable disease, but then develop resistance and rapidly progress, failing PD-1 inhibitor antibody therapy. In this example, the efficacy of HBI-8000 as a second-line therapy, alone and in combination with PD-1 inhibitor antibody RMPI-14, was evaluated for the ability to cause tumor growth delay (TGD) in animals which tumors which are progressing following PD-L1 inhibitor antibody first line therapy in the MC38 murine colon carcinoma syngeneic model in immunocompetent C57BL/6 mice.
# Female C57BL/6 mice bearing subcutaneous MC38 tumors (mean tumor volume: 114 mm^3 when treatment began) were treated with a first line of therapy of PD-L1 inhibitor antibody treatment, administered intraperitoneally (i.p.) at 5 mg/kg, twice weekly for two weeks (biwk×2). […] Dosing began on D1, which represents the day of recruitment and varied among mice (this was normalized for each group). The second-line therapies were as follows. Vehicle was administered orally (p.o.). HBI-8000 was administered p.o. at 50 mg/kg. PD-1 inhibitor antibody and anti-PDL-1 were administered intraperitoneally (i.p) at 5 mg/kg. Group 1 mice served as controls and received 0.2% carboxymethyl cellulose: 0.1% Tween 80 in deionized water (vehicle) once daily for twenty-one days (qd×21). Group 2 received HBI-8000 qd×21. Group 3 received a second course of PD-L1 inhibitor antibody biwk×2. Group 4 received HBI-8000 qd×21 and PD-L1 inhibitor antibody biwk×2. Group 5 received anti-PD-1 biwk×2. Group 6 received HBI-8000 qd×21 and anti-PD-1 biwk×2. The study endpoint was tumor volume of 1500 mm^3 or 45 days, whichever came first. Tumor measurements were taken twice weekly until D44 with individual animals exiting the study upon reaching the tumor volume endpoint.
# Tumor Implantation and Measurement: Details of tumor implantation and measurement of tumor growth used in this example can be found in Example 1. In this example, each mouse was inoculated subcutaneously in the right flank with 5×10^5 cells (0.1 mL of cell suspension).
# Test Articles: HUYA Bioscience International provided HBI-8000 (Lot No. 1384:0033). PD-1 inhibitor antibody RMPI-14 (Lot No. 5611-10/0615) and PDL-1 antibody 10F.9G2 (anti-PDL-1, Lot No. 5786-7-8/0815) were purchased from Bio X cell (West Lebanon, N.H.). All agents were prepared according to protocol instructions.
# Dosing Solutions: HBI-8000 was prepared by diluting in 0.2% CMC: 0.1% Tween 80 to yield a 5 mg/mL dosing solution. Dosing solutions were prepared fresh weekly and stored at 4° C. PD-1 inhibitor antibody dosing solution was prepared by diluting an aliquot of the stock (8.62 mg/mL) to 0.5 mg/mL in sterile PBS. The dosing solution was prepared twice weekly and stored at 4° C. Anti-PDL-1 antibody dosing solution was prepared by diluting an aliquot of the stock (5.37 mg/mL) to 0.5 mg/mL in sterile PBS. The anti-PDL-1 antibody dosing solution was prepared twice weekly and stored at 4° C.
# Treatment: For the initial PD-L1 inhibitor antibody failure part of this study, 150 C57BL/6 mice were dosed i.p. with first line PD-L1 inhibitor antibody at 5 mg/kg, biwk×2. Animals that met the criteria for reenrollment comprised the efficacy study; this included animals with two consecutive increases in tumor volume and tumor volumes below 500 mm^3. […]
# [4] = HBI-8000 50 mg/kg p.o. qd×21, antibodies 5 mg/kg i.p., vs vehicle
# Sequence of HDAC 1 (Q13547 whole entry): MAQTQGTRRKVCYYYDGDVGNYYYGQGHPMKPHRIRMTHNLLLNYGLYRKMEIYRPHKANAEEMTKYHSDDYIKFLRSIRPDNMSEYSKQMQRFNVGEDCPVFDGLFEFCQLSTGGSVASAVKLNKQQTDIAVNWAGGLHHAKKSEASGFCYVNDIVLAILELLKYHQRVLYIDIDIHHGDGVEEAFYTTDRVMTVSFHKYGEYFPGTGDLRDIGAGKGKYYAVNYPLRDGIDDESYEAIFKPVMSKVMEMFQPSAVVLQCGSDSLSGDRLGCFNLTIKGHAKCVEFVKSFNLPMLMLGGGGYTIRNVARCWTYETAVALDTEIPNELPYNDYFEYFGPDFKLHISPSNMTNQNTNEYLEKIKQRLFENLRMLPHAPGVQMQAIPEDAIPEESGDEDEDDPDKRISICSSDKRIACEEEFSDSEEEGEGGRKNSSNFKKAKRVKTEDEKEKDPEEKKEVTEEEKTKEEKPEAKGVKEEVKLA
smiles,measurement,setting,value
"Nc1cc(F)ccc1NC(=O)c1ccc(CNC(=O)/C=C/c2cccnc2)cc1 [HBI-8000, N-(2-amino-4-fluorophenyl)-4-[[[(2E)-1-oxo-3-(3-pyridinyl)-2-propen-1-yl]amino]methyl]benz amide]",activity at HDAC 1 compared with Entinostat,[1],more active than Entinostat
same,inhibition of HDAC 1,[1],low nanomolar concentrations
same,activity at HDAC 11,[2],has activity
same,activity at HDAC 11 compared with Entinostat,[2]; reported by Ning et al.,more active than Entinostat
same,Median TTE,"[3]; HBI-8000 50 mg/kg p.o. qd×21, antibodies 5 mg/kg i.p., endpoint 1500 mm^3 or 45 days, n=10",11.4 days
same,% TGD,[3]; [4],31.8%
same,Mean T-C,[3]; [4],3.0 days
same,"CR (complete response), number of animals",[3]; n=10 per group,1
same,"NR (no response), number of animals",[3]; n=10 per group,8
same,"PR (partial response), number of animals",[3]; n=10 per group,1
